# According to paper PMC3805573, “Methylglyoxal Evokes Pain by Stimulating TRPA1” (PLoS ONE, 2013):
# Legend:
# human TRPA1 = target: T1, human TRPA1 (Homo sapiens, UniProt O75762); experiment: [Ca2+]i-responses in CHO cells expressing human TRPA1; format: cell-based; conditions: CHO cells expressing human TRPA1, extracellular application; read-out: EC50, increases in [Ca2+]i
# T1 construct: expressed in transfected cells; host or cells: CHO cells
# Procedure: (§1) Untransfected CHO cells and CHO cells expressing mouse or human TRPA1 were grown in MEM Glutamax or AQ medium supplemented with penicillin (100 U/ml), streptomycin (100 µg/ml), and FCS (10%). Plasmids encoding mutated TRPA1 channels were kindly provided by Dr. Ardem Patapoutian. All media, serum and antibiotics were from Invitrogen (Paisley, UK) or Sigma (Poole, UK).
# (§2) Cells were loaded with 2 µM Fura-2 AM (Molecular Probes, Paisley, UK) in the presence of 1 mM probenecid for ∼1 hr. The experiments were performed in a physiological saline solution containing (in mM) 140 NaCl, 5 KCl, 10 glucose, 10 HEPES, 2 CaCl2, and 1 MgCl2, buffered to pH 7.4 with NaOH. Compounds were applied to cells by local continuous microperfusion of solution through a fine tube placed in close proximity of the cells studied. Images of a group of cells were captured every 2 sec using 340 and 380 nm excitation wavelengths with emission measured at 520 nm with a microscope based imaging system (PTI, New Jersey). […]
# (§3) Changes in intracellular calcium ([Ca^2+]i) in response to agonists were determined in TRPA1 expressing CHO cells and MDCK cells using a Flexstation 3 (Molecular Devices). […] Basal emission ratios (340 nm/380 nm) were measured and changes in ratio determined at various times after compound addition.
# DRG neurons [1] = experiment: Voltage clamp recordings of DRG neurons; format: cell-based, mice; conditions: -60 mV, 15 µM Ca2+, a proportion of neurons
# Procedure: (§4) DRG neurons were prepared from adult male or female mice using methods described previously. Isolated neurons were maintained in MEM AQ (5.6 mM glucose) supplemented with 10% fetal bovine serum, 100 U/ml penicillin, 100 µg/ml streptomycin and 50 ng/ml NGF (Promega, Southampton, UK) for less than 24 hours before experimentation.
# (§5) DRG neurons and TRPA1 CHO cells were studied under voltage-clamp conditions using an Axopatch 200B amplifier and pClamp 10.0 software (Molecular Devices, Sunnyvale, CA). Except where stated otherwise, whole cell recordings were performed at a holding potential of –60 mV using an extracellular solution with the composition described above for [Ca^2+]i measurements. Borosilicate glass pipettes (2–5 MΩ, 75–80% series resistance compensation) were filled with (in mM) 140 KCl, 1 CaCl2, 2 MgATP, 10 EGTA, and 10 HEPES buffered to pH 7.4 (KOH). Excised inside-out patches were recorded using a Ca^2+-free solution containing (in mM) 140 NaCl, 5 KCl, 1 MgCl2, 10 HEPES and 1 EGTA, pH 7.4 (NaOH) in the pipettes and perfused with 140 KCl, 2 MgATP, 1 EGTA, and 10 HEPES (pH 7.4). DRG neurons were studied using an intracellular solution containing (in mM) 140 CsCl, 1 CaCl2, 2 MgATP, 10 EGTA and 10 HEPES, pH 7.4 (CsOH). Drugs were applied by local microperfusion with a rapid solution changer (RSC-200, Biologic, Claix, France).
# DRG neurons [2] = experiment: [Ca2+]i-responses in cultured DRG neurons; format: cell-based, mice
# Procedure: as §4
# Cells were loaded with 2 µM Fura-2 AM (Molecular Probes, Paisley, UK) in the presence of 1 mM probenecid for ∼1 hr. The experiments were performed in a physiological saline solution containing (in mM) 140 NaCl, 5 KCl, 10 glucose, 10 HEPES, 2 CaCl2, and 1 MgCl2, buffered to pH 7.4 with NaOH. Compounds were applied to cells by local continuous microperfusion of solution through a fine tube placed in close proximity of the cells studied. Images of a group of cells were captured every 2 sec using 340 and 380 nm excitation wavelengths with emission measured at 520 nm with a microscope based imaging system (PTI, New Jersey). Analyses of emission intensity ratios at 340 nm/380 nm excitation (R, in individual cells) were performed using the ImageMaster suite of software.
# [3] = tested on: human TRPA1 C621S, C641S or C665S; experiment: [Ca2+]i-responses of human TRPA1 point mutants C621S, C641S, C665S; format: cell-based; conditions: human TRPA1 single point mutants vs wildtype
# Procedure: as §1, §2, §3
# MDCK cells = experiment: [Ca2+]i-measurements in MDCK cells; format: cell-based, Canine
# Procedure: MDCK cells were grown in DMEM (Invitrogen) supplemented with 5% fetal bovine serum, 100 U/ml penicillin and 100 µg/ml streptomycin. […] The experiments were performed in a physiological saline solution containing (in mM) 140 NaCl, 5 KCl, 10 glucose, 10 HEPES, 2 CaCl2, and 1 MgCl2, buffered to pH 7.4 with NaOH. Compounds were applied to cells by local continuous microperfusion of solution through a fine tube placed in close proximity of the cells studied. […] Analyses of emission intensity ratios at 340 nm/380 nm excitation (R, in individual cells) were performed using the ImageMaster suite of software. […] Cells grown in 96 well black walled plates (Costar, Tewksbury, MA) were loaded with Fura 2-AM in the presence of 1 mM probenecid at 37°C for 1–1.5 hours and assays were carried out at 25°C. Basal emission ratios (340 nm/380 nm) were measured and changes in ratio determined at various times after compound addition.
# untransfected CHO cells = experiment: [Ca2+]i in untransfected CHO cells; format: cell-based; conditions: untransfected CHO cells or absence of extracellular Ca2+ (data not shown)
# Procedure: as §1, §2, §3
# TRPA1 = experiment: Outward TRPA1 currents in absence of Ca2+, effect of DTT; format: cell-based; conditions: MG 1 mM, +60 mV, Ca2+-free
# Procedure: as §5
# It is possible that MG stimulates TRPA1 through formation of reversible hemithioacetals with cysteine residues other than those examined here, [40]. To investigate this possibility we examined the effect of the reducing agent dithiothreitol (DTT, 2 mM) on outward TRPA1 currents recorded in the absence of Ca^2+ (5 mM BAPTA intracellularly, 1 mM EGTA extracellularly) to avoid Ca^2+-mediated inactivation or desensitization. We used DTT to determine whether disulfide bridge formation or reversible noncovalent interactions contribute to the agonist activity of MG. DTT is expected to rapidly reduce cystine bridges to free thiols, but also to form hemithioacetals with MG, thereby accelerating current decay. Covalent modification of arginine and lysine residues by MG and modification of cysteine residues by AITC are on the other hand resistant to DTT [31]. […] This is consistent with the expected oxidative formation of cystine bridges and their reduction by DTT [4]. The contrast between the stable currents produced by H2O2 and the spontaneously reversible currents evoked by MG highlights the reversible nature of the interaction between MG and TRPA1. […] We also observed that repeated applications of MG and H2O2 evoked reproducible current responses of similar amplitudes, whereas an application of AITC prevented subsequent channel activation by AITC challenges (Fig. 4C-E). We conclude that MG acts through a reversible interaction with TRPA1 and that H2O2 relies on DTT sensitive oxidative modification of TRPA1 protein for its activity. […] In contrast, the covalent modification produced by AITC appears irreversible and renders TRPA1 refractory to subsequent activation.
# T1 sequence (O75762 whole entry): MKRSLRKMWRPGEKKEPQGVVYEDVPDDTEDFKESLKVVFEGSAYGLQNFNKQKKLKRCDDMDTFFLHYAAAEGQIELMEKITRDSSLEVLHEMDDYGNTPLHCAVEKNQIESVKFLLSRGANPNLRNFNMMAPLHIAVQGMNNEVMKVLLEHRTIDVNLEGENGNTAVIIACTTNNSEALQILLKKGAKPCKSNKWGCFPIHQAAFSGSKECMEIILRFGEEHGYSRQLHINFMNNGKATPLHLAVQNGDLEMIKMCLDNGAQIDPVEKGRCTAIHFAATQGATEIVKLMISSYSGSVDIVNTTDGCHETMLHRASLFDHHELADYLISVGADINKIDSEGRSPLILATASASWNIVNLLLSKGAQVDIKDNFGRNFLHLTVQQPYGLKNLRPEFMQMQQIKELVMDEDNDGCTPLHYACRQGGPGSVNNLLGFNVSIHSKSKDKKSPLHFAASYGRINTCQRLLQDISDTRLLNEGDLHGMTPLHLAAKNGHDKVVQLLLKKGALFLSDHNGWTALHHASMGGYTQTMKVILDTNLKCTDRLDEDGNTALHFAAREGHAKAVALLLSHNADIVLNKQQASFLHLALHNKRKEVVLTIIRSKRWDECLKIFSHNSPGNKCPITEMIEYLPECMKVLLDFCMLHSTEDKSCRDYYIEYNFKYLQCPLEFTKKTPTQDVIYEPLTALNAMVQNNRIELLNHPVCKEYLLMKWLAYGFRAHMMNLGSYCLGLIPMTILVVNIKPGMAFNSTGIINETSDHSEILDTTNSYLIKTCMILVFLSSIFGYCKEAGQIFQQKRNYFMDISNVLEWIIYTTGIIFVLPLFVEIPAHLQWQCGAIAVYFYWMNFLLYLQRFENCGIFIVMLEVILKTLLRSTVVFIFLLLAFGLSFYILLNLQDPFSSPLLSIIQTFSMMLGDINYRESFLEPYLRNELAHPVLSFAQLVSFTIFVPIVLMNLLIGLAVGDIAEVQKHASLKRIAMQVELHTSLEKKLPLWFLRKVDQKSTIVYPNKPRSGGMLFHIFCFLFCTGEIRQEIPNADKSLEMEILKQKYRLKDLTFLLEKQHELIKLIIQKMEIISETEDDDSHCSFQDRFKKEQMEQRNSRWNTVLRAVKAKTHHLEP
structure (smiles),measurement,setting,value
"CC(=O)C=O [MG, methylglyoxal]",EC50,human TRPA1,700 ± 200 µM
same,current in DRG neurons,DRG neurons [1],evoked robust inward currents
same,capsaicin-sensitive DRG neurons with [Ca2+]i-responses,DRG neurons [2]; neurons from Trpa1+/+ mice (240 of 333),72%
same,DRG neurons with [Ca2+]i-responses,DRG neurons [2]; neurons from Trpa1-/- mice (1 of 322),0%
same,"effect of substitutions C621S, C641S, C665S on potency of MG",[3],None of these amino acid substitutions affected the potency of MG significantly
same,[Ca2+]i-influx response,MDCK cells; 5 mM,evoked [Ca^2+]i-influx responses
same,EC50,"MDCK cells; read-out: EC50, [Ca2+]i-responses",2200 ± 400 µM
same,effect on [Ca2+]i,untransfected CHO cells,had no effect
same,effect of DTT (2 mM) on agonist-evoked TRPA1 current,TRPA1,dramatically accelerated the TRPA1 current decay
same,outward TRPA1 current after removal of agonist,TRPA1,partially decayed with time after removal of MG
